US10662182B2, “Microbiocidal thiazole derivatives” (SYNGENTA PARTICIPATIONS AG, priority 2016, dated 2020)

Tests used:
[1] = test system: Mycosphaerella arachidis (Cercospora arachidicola); assay: Mycosphaerella arachidis / liquid culture (early leaf spot); type: cell-based; conditions: 200 ppm in the formulation, inhibition of growth determined photometrically, compared to untreated checks, read-out: disease control
Experimental: (§1) Mycosphaerella arachidis (Cercospora arachidicola)/Liquid Culture (Early Leaf Spot) Conidia of the fungus from cryogenic storage are directly mixed into nutrient broth (PDB potato dextrose broth). After placing a (DMSO) solution of test compound into a microtiter plate (96-well format), the nutrient broth containing the fungal spores is added. The test plates are incubated at 24° C. and the inhibition of growth is determined photometrically 4-5 days after application.

Pyrenophora teres = Pyrenophora teres / barley / leaf disc preventative (net blotch); type: in vivo; conditions: foliar, 200 ppm of the formulation, barley leaf segments cv. Hasso, compared to untreated checks, read-out: disease control
Experimental: Pyrenophora teres/Barley/Leaf Disc Preventative (Net Blotch) Barley leaf segments cv. Hasso are placed on agar in a multiwell plate (24-well format) and sprayed with the test compound formulated with DMSO and Tween20 and diluted in water. The leaf segments are inoculated with a spore suspension of the fungus 2 days after application. The inoculated leaf segments are incubated at 20° C. and 65% rh under a light regime of 12 h light/12 h darkness in a climate cabinet and the activity of a compound is assessed as disease control compared to untreated when an appropriate level of disease damage appears in untreated check leaf segments (5 to 7 days after application).

[2] = test system: Mycosphaerella raminicola (Septoria tritici); assay: Mycosphaerella graminicola / liquid culture (Septoria blotch); type: cell-based; conditions: 200 ppm in the formulation, inhibition of growth determined photometrically, compared to untreated checks, read-out: disease control
Experimental: as §1, with “raminicola (Septoria tritici)/Liquid” for “arachidis (Cercospora arachidicola)/Liquid”, “(Septoria blotch)” for “(Early Leaf Spot)”, “4 to 5” for “4-5”

[3] = test system: Blumeria graminis f. Sp. Tritici (Erysiphe graminis f. Sp. Tritici); assay: Blumeria graminis f. sp. tritici / wheat / leaf disc preventative (powdery mildew on wheat); type: in vivo; conditions: foliar, 200 ppm in the formulation, wheat leaf segments cv. Kanzler, compared to untreated checks, read-out: disease control
Text: Blumeria graminis f. Sp. Tritici (Erysiphe graminis f. Sp. Tritici)/Wheat/Leaf Disc Preventative (Powdery Mildew on Wheat) Wheat leaf segments cv. Kanzler are placed on agar in a multiwell plate (24-well format) and sprayed with the test compound formulated with DMSO and Tween20 and diluted in water. The leaf disks are inoculated by shaking powdery mildew infected plants above the test plates 1 day after application.

[4] = test system: Monocraphella nivalis (Microdochium nivale); assay: Monographella nivalis / liquid culture (foot rot cereals); type: cell-based; conditions: 200 ppm in the formulation, inhibition of growth determined photometrically, compared to untreated checks, read-out: disease control
Experimental: as §1, with “Monocraphella nivalis (Microdochium nivale)/Liquid” for “Mycosphaerella arachidis (Cercospora arachidicola)/Liquid”, “(Foot Rot Cereals)” for “(Early Leaf Spot)”

[5] = test system: Glomerella lacenarium (Colletotrichum lacenarium); assay: Glomerella lagenarium / liquid culture (anthracnose); type: cell-based; conditions: 200 ppm in the formulation, inhibition of growth measured photometrically, compared to untreated checks, read-out: disease control
Experimental: as §1, with “Glomerella lacenarium (Colletotrichum lacenarium)/Liquid” for “Mycosphaerella arachidis (Cercospora arachidicola)/Liquid”, “(Anthracnose)” for “(Early Leaf Spot)”, “measured” for “determined”, “3 to 4” for “4-5”

[6] = test system: Magnaporthe risea (Pyricularia oryzae); assay: whole plant or invertebrate; type: in vivo; conditions: foliar, read-out: disease control
[7] = test system: Puccinia recondita f. Sp. Tritici; assay: Puccinia recondita f. sp. tritici / wheat / leaf disc preventative (brown rust); type: in vivo; conditions: foliar, 200 ppm in the formulation, wheat leaf segments cv. Kanzler, compared to untreated checks, read-out: disease control
Gaeumannomyces graminis = Gaeumannomyces graminis / liquid culture (take-all of cereals); type: cell-based; conditions: 200 ppm in the formulation, inhibition of growth determined photometrically, compared to untreated control, read-out: disease control
Experimental: Gaeumannomyces graminis/Liquid Culture (Take-All of Cereals) Mycelial fragments of the fungus from cryogenic storage were directly mixed into nutrient broth (PDB potato dextrose broth). After placing a (DMSO) solution of test compound into a microtiter plate (96-well format), the nutrient broth containing the fungal spores is added. The test plates are incubated at 24° C. and the inhibition of growth is determined photometrically 4-5 days after application.

[8] = test system: Botrvotinia fuckeliana (Botrvtis cinerea); assay: Botryotinia fuckeliana / liquid culture (gray mould); type: cell-based; conditions: Botrytis cinerea, 200 ppm in the formulation, inhibition of growth determined photometrically, compared to untreated checks, read-out: disease control
Experimental: as §1, with “Botrvotinia fuckeliana (Botrvtis cinerea)/Liquid” for “Mycosphaerella arachidis (Cercospora arachidicola)/Liquid”, “(Gray Mould)” for “(Early Leaf Spot)”, “(Vogels” for “(PDB potato dextrose”, “3-4” for “4-5”

Compound | inhibition of growth at 200 ppm [1] | pest or weed control at 200 µg/mL (Pyrenophora teres) | inhibition of growth at 200 ppm [2] | pest or weed control at 200 ppm [3] | inhibition of growth at 200 ppm [4] | inhibition of growth at 200 ppm [5] | pest or weed control at 200 ppm [6] | pest or weed control at 200 ppm [7] | inhibition of growth at 200 ppm (Gaeumannomyces graminis) | melting point | inhibition of growth at 200 ppm [8]
Cc1sc(Nc2cc(F)cc(F)c2)nc1C(=O)NC(C)C1CCCCC1 (stereo not shown) [I.e.3, N-(1-cyclohexylethyl)-2-(3,5-difluoroanilino)-5-methyl-thiazole-4-carboxamide] | ≥ 80% | ≥ 80% | ≥ 80% | ≥ 80% | ≥ 80% | ≥ 80% | ≥ 80% | ≥ 80% | ≥ 80% |  | 
Cc1sc(Nc2cc(F)nc(F)c2)nc1C(=O)NC1CCC12CCCC2 (stereo not shown) [I.s.43, 2-[(2,6-difluoro-4-pyridyl)amino]-5-methyl-N-spiro[3.4]octan-3-yl-thiazole-4-carboxamide] | ≥ 80% | ≥ 80% | ≥ 80% | ≥ 80% | ≥ 80% | ≥ 80% | ≥ 80% | ≥ 80% |  | 156 to 162 °C | ≥ 80%
Cc1sc(Nc2cc(F)cc(F)c2)nc1C(=O)NC(C)(C#N)C(C)C (stereo not shown) [Compound I.n.3, N-(1-cyano-1,2-dimethyl-propyl)-2-(3,5-difluoroanilino)-5-methyl-thiazole-4-carboxamide] | ≥ 80% |  | ≥ 80% | ≥ 80% | ≥ 80% | ≥ 80% | ≥ 80% | ≥ 80% | ≥ 80% |  | ≥ 80%
CC1(C)C2CCCC2C1NC(=O)c1nc(Nc2cc(F)cc(F)c2)sc1Br (stereo not shown) [I.y.2, 5-bromo-2-(3,5-difluoroanilino)-N-(6,6-dimethyl-7-bicyclo[3.2.0]heptanyl)thiazole-4-carboxamide] | ≥ 80% | ≥ 80% | ≥ 80% | ≥ 80% | ≥ 80% | ≥ 80% | ≥ 80% | ≥ 80% | ≥ 80% |  | ≥ 80%
Cc1sc(Nc2cc(F)cc(F)c2)nc1C(=O)NC1CC12CC2 (stereo not shown) [I.bb.3, 2-(3,5-difluoroanilino)-5-methyl-N-spiro[2.2]pentan-2-yl-thiazole-4-carboxamide] | ≥ 80% |  | ≥ 80% | ≥ 80% | ≥ 80% | ≥ 80% | ≥ 80% | ≥ 80% |  | 145 to 175 °C | 
Cc1sc(Nc2cc(F)cc(F)c2)nc1C(=O)NC1CCC12CCCC2 (stereo not shown) [I.s.3, 2-(3,5-difluoroanilino)-5-methyl-N-spiro[3.4]octan-3-yl-thiazole-4-carboxamide] | ≥ 80% | ≥ 80% | ≥ 80% | ≥ 80% | ≥ 80% | ≥ 80% | ≥ 80% | ≥ 80% | ≥ 80% |  | 
Cc1sc(Nc2cc(F)cc(F)c2)nc1C(=O)NC1C2CCCC2C1(C)C (stereo not shown) [I.y.3, 2-(3,5-difluoroanilino)-N-(6,6-dimethyl-7-bicyclo[3.2.0]heptanyl)-5-methyl-thiazole-4-carboxamide] | ≥ 80% |  | ≥ 80% | ≥ 80% | ≥ 80% | ≥ 80% | ≥ 80% | ≥ 80% | ≥ 80% |  | 
CC12CCCC(NC(=O)c3nc(Nc4cc(F)cc(F)c4)sc3Br)C1CC2 (stereo not shown) [I.ah.2, 5-bromo-2-(3,5-difluoroanilino)-N-(6-methyl-2-bicyclo[4.2.0]octanyl)thiazole-4-carboxamide] |  |  | ≥ 80% | ≥ 80% | ≥ 80% | ≥ 80% | ≥ 80% | ≥ 80% | ≥ 80% |  | ≥ 80%
Cc1sc(Nc2cc(F)cc(F)c2)nc1C(=O)NC1CCC12CCC2 (stereo not shown) [I.r.3, 2-(3,5-difluoroanilino)-5-methyl-N-spiro[3.3]heptan-7-yl-thiazole-4-carboxamide] | ≥ 80% | ≥ 80% | ≥ 80% | ≥ 80% | ≥ 80% | ≥ 80% | ≥ 80% | ≥ 80% | ≥ 80% |  | ≥ 80%
Cc1sc(Nc2cc(F)nc(F)c2)nc1C(=O)NC1CC12CC2 (stereo not shown) [I.bb.43, 2-[(2,6-difluoro-4-pyridyl)amino]-5-methyl-N-spiro[2.2]pentan-2-yl-thiazole-4-carboxamide] | ≥ 80% | ≥ 80% | ≥ 80% | ≥ 80% | ≥ 80% | ≥ 80% | ≥ 80% | ≥ 80% |  | 129 to 158 °C | 
Cc1sc(Nc2cc(F)cc(F)c2)nc1C(=O)NC1CCCC2(C)CCC12 (stereo not shown) [I.ah.3, 2-(3,5-difluoroanilino)-5-methyl-N-(6-methyl-2-bicyclo[4.2.0]octanyl)thiazole-4-carboxamide] | ≥ 80% |  | ≥ 80% |  | ≥ 80% | ≥ 80% |  |  | ≥ 80% |  | ≥ 80%
CC(NC(=O)c1nc(Nc2cc(F)cc(F)c2)sc1Br)C1CCCCC1 (stereo not shown) [Compound I.e.2, 5-bromo-N-(1-cyclohexylethyl)-2-(3,5-difluoroanilino)thiazole-4-carboxamide] | ≥ 80% | ≥ 80% | ≥ 80% | ≥ 80% | ≥ 80% | ≥ 80% |  | ≥ 80% | ≥ 80% |  | ≥ 80%
O=C(NC1CCC12CCC2)c1nc(Nc2cc(F)cc(F)c2)sc1Br (stereo not shown) [I.r.2, 5-bromo-2-(3,5-difluoroanilino)-N-spiro[3.3]heptan-7-yl-thiazole-4-carboxamide] | ≥ 80% | ≥ 80% | ≥ 80% | ≥ 80% | ≥ 80% | ≥ 80% | ≥ 80% | ≥ 80% | ≥ 80% |  | ≥ 80%
